Assay results from patent US12371416B2, “Compounds for inhibition of fibroblast activation protein” (USTAV ORGANICKE CHEMIE A BIOCHEMIE AV CR, V. V. I., priority 2020, dated 2025).

Key:
Assay type in all cases: cell-based, human
Details in all cases: 72 h
[1] = tested on: CCRF-CEM; experiment: Cytotoxicity (XTT) on CCRF-CEM cells
Procedure: (§1) The cytotoxicity of the substances was measured on four tumour cell lines: CCRF-CEM, HepG2, Hela, HL-60. All cell lines were purchased from ATCC (Manassas, VA, USA). Cells were cultured in RPMI-1640 or DMEM medium containing 10% (wt/wt) FBS and 1% (wt/wt) GlutaMax. Cells were distributed at 2,000-10,000 per well of a 384-well plate (Thermo Fisher Scientific, Waltham, USA) and incubated overnight. After 24 hours, test substance solutions (10 or 100 μmol·l^−1) were added to the wells and the cells were incubated with the test substances at 37° C. and 5% (vol./vol.) CO2 for another 72 h. XTT dye (XTT cell proliferation kit II, Roche Diagnostics GmbH, Mannheim, Germany) was added to the wells according to the manufacturer's protocol. After one hour of incubation with the dye, the absorbance at 495 nm was measured and the signal was compared with the control (100% viability=cells without test substance).

[2] = tested on: HL-60; experiment: Cytotoxicity (XTT) on HL-60 cells
Procedure: as §1

[3] = tested on: Hela; experiment: Cytotoxicity (XTT) on Hela cells
Procedure: as §1

[4] = tested on: HepG2; experiment: Cytotoxicity (XTT) on HepG2 cells
Procedure: as §1

Compound	Cell viability CEM 10 μM [1]	Cell viability CEM 100 μM [1]	Cell viability HL60 10 μM [2]	Cell viability HL60 100 μM [2]	Cell viability HeLa S3 10 μM [3]	Cell viability HeLa S3 100 μM [3]	Cell viability HepG2 10 μM [4]	Cell viability HepG2 100 μM [4]
COC(=O)C(C)NC(=O)C(=O)[C@@H]1CCCN1C(=O)CNC(=O)c1ccnc2ccccc12 (mixture of isomers) [Compound 3m, Methyl (2-oxo-2-((S)-1-((quinoline-4-carbonyl)glycyl)pyrrolidin-2-yl)acetyl)alaninate]	97 % vs. control	120 % vs. control	102 % vs. control	124 % vs. control	108 % vs. control	104 % vs. control	91 % vs. control	105 % vs. control
COC(=O)[C@H](CC(C)C)NC(=O)CNC(=O)C(=O)[C@@H]1CCCN1C(=O)CNC(=O)c1ccnc2ccccc12 [Compound 5e, Methyl (2-oxo-2-((S)-1-((quinoline-4-carbonyl)glycyl)pyrrolidin-2-yl)acetyl)glycyl-L-leucinate]	96 % vs. control	104 % vs. control	112 % vs. control	83 % vs. control	99 % vs. control	106 % vs. control	75 % vs. control	110 % vs. control
COC(=O)[C@H](CCC(N)=O)NC(=O)CNC(=O)C(=O)[C@@H]1CCCN1C(=O)CNC(=O)c1ccnc2ccccc12 [Compound 5g, Methyl (2-oxo-2-((S)-1-((quinoline-4-carbonyl)glycyl)pyrrolidin-2-yl)acetyl)glycyl-L-glutaminate]	114 % vs. control	101 % vs. control	88 % vs. control	103 % vs. control	109 % vs. control	99 % vs. control	102 % vs. control	108 % vs. control
COc1ccc(NC(=O)C(=O)[C@@H]2CCCN2C(=O)CNC(=O)c2ccnc3ccccc23)cc1 [Compound 3f, (S)—N-(2-(2-(2-((4-Methoxyphenyl)amino)-2-oxoacetyl)pyrrolidin-1-yl)-2-oxoethyl)quinoline-4-carboxamide]	92 % vs. control	84 % vs. control	110 % vs. control	108 % vs. control	103 % vs. control	94 % vs. control	95 % vs. control	82 % vs. control
O=C(NC1CC1)C(=O)[C@@H]1CCCN1C(=O)CNC(=O)c1ccnc2ccccc12 [Compound 3h, (S)—N-(2-(2-(2-(Cyclopropylamino)-2-oxoacetyl)pyrrolidin-1-yl)-2-oxoethyl)quinoline-4-carboxamide]	94 % vs. control	115 % vs. control	110 % vs. control	95 % vs. control	89 % vs. control	103 % vs. control	88 % vs. control	108 % vs. control
O=C(NCC(=O)N1CCCC1)C(=O)[C@@H]1CCCN1C(=O)CNC(=O)c1ccnc2ccccc12 [Compound 5b]	90 % vs. control	109 % vs. control	111 % vs. control	86 % vs. control	93 % vs. control	101 % vs. control	83 % vs. control	106 % vs. control
CC(C)NC(=O)C(=O)[C@@H]1CCCN1C(=O)CNC(=O)c1ccnc2ccccc12 [Compound 3i, (S)—N-(2-(2-(2-(Isopropylamino)-2-oxoacetyl)pyrrolidin-1-yl)-2-oxoethyl)quinoline-4-carboxamide]	93 % vs. control	117 % vs. control	111 % vs. control	100 % vs. control	78 % vs. control	105 % vs. control	87 % vs. control	110 % vs. control
O=C(CNC(=O)C(=O)[C@@H]1CCCN1C(=O)CNC(=O)c1ccnc2ccccc12)NCc1ccccc1 [Compound 5d, (S)—N-(2-(2-(2-((2-(Benzylamino)-2-oxoethyl)amino)-2-oxoacetyl)pyrrolidin-1-yl)-2-oxoethyl)quinoline-4-carboxamide]	89 % vs. control	107 % vs. control	112 % vs. control	95 % vs. control	95 % vs. control	96 % vs. control	82 % vs. control	89 % vs. control
CN(C)C(=O)CNC(=O)C(=O)[C@@H]1CCCN1C(=O)CNC(=O)c1ccnc2ccccc12 [Compound 5a, (S)—N-(2-(2-(2-((2-(Dimethylamino)-2-oxoethyl)amino)-2-oxoacetyl)pyrrolidin-1-yl)-2-oxoethyl)quinoline-4-carboxamide]	104 % vs. control	100 % vs. control	105 % vs. control	76 % vs. control	92 % vs. control	102 % vs. control	91 % vs. control	104 % vs. control
O=C(NCCc1ccccc1)C(=O)[C@@H]1CCCN1C(=O)CNC(=O)c1ccnc2ccccc12 [Compound 3d, (S)—N-(2-Oxo-2-(2-(2-oxo-2-(phenethylamino)acetyl)pyrrolidin-1-yl)ethyl)quinoline-4-carboxamide]	105 % vs. control	85 % vs. control	110 % vs. control	107 % vs. control	86 % vs. control	81 % vs. control	88 % vs. control	89 % vs. control
COC(=O)c1ccc(NC(=O)C(=O)[C@@H]2CCCN2C(=O)CNC(=O)c2ccnc3ccccc23)cc1 [Compound 3g, Methyl (S)-4-(2-oxo-2-(1-((quinoline-4-carbonyl)glycyl)pyrrolidin-2-yl)acetamido)benzoate]	106 % vs. control	73 % vs. control	100 % vs. control	103 % vs. control	98 % vs. control	89 % vs. control	93 % vs. control	63 % vs. control
COC(=O)CNC(=O)C(=O)[C@@H]1CCCN1C(=O)CNC(=O)c1ccnc2ccccc12 [Compound 3k, Methyl (S)-(2-oxo-2-(1-((quinoline-4-carbonyl)glycyl)pyrrolidin-2-yl)acetyl)glycinate]	110 % vs. control	123 % vs. control	112 % vs. control	103 % vs. control	104 % vs. control	94 % vs. control	109 % vs. control	105 % vs. control
CC(C)NC(=O)CNC(=O)C(=O)[C@@H]1CCCN1C(=O)CNC(=O)c1ccnc2ccccc12 [Compound 5c, (S)—N-(2-(2-(2-((2-(Isopropylamino)-2-oxoethyl)amino)-2-oxoacetyl)pyrrolidin-1-yl)-2-oxoethyl)quinoline-4-carboxamide]	113 % vs. control	108 % vs. control	86 % vs. control	89 % vs. control	119 % vs. control	99 % vs. control	96 % vs. control	108 % vs. control
